Laboratory results: patent US11339417B2, “Amplifier system and controls for dielectrophoretic tracking in microfluidic devices” (University of Virginia Patent Foundation, priority 2014, dated 2022)
Several values for one entry are separate records, joined by “and”; a condition that tells them apart may be missing. Identical values can stand only once.

What was measured:
[1] = test system: Cryptosporidium parvum oocysts; assay: Excystation of oocysts after disinfection treatment; assay type: cell-based; conditions: oocysts treated with 100 mg L^−1 for 4 hours; untreated 89.5%
Experimental: For treatment with silver nanoparticles (AgNPs), the animal infectivity experiment was done after the oocysts were treated with 100 mg L^−1 proteinate capped AgNPs (Argenol) (˜15 nm) for 4 hours.
After each disinfection treatment, the oocysts were treated with 10% bleach (Bleach-Rite) for 30 minutes in a micro-centrifuge tube at room temperature, followed by vortexing every 10 minutes. The suspension was incubated in a microfluidic chamber with a glass cover-slip for an hour, for real-time recording of the excystation; i.e. release of sporozoites from the oocyst. The excystation was examined by inverted microscopy using 63× oil immersion phase and DIC objectives. […] The percentage of the excystation was calculated as: (# of excysted oocytsl # of total oocyst)×100.^29 For mouse model infectivity studies,^12 all mice were malnourished for a period of 13 days before experiments. For every six mice fed with the oocysts for each treatment, three other mice were fed with untreated oocysts as positive control.

[2] = test system: Cryptosporidium parvum oocysts; assay: Dielectrophoretic characterization of oocysts (DEP tracking, single shell model fit); assay type: cell-based; conditions: 100 mg L^−1 for 4 hours
[3] = test system: C. difficile VPI11186 (non-toxigenic, NTCD); assay: Dielectrophoretic (DEP) characterization of C. difficile NTCD strain after vancomycin treatment; assay type: cell-based, Clostridium difficile
Experimental: (§1) Bacteria strains preparation. II three C. difficile strains were purchased from ATCC. The bacteria were cultured in brain heart infusion (BHI) broth (BD BBL Brain Heart Infusion) at 37° C. overnight under anaerobic condition before further antibiotic treatment or dielectrophoretic experiments. 250 μL of the overnight cultured bacteria suspension and 750 μL of the BHI with vancomycin (Novaplus) or without vancomycin for the control groups were mixed in Eppendorf tubes and incubated at 37° C. for 4 hours or 24 hours. The vancomycin concentration for VPI10463 (high-toxigenic, HTCD) was 2 mg/mL and 1 mg/mL for ATCC630 (low-toxigenic, LTCD) and VPI11186 (non-toxigenic, NTCD). […]
(§2) Dielectrophoretic characterization of C. difficile. […] The trajectory of the unlabeled C. difficile of each strain type was observed under this field, as high frame per second movies to quantify the DEP velocity. For experiments within mixed C. difficile samples, the trapped microbials were released and analyzed with the immunoassay to confirm toxigenicity. […]
(§3) FIGS. 2a and 2b show the electrode-less device with external electrodes (1 cm apart) to initiate localized microbial trapping in the constriction region. […] In this manner, as per prior work^33, the translational velocity under the DEP trapping force is measured for ˜20 individual microbial cells to quantify the DEP spectra. […]

[4] = test system: C. difficile ATCC630 (low-toxigenic, LTCD); assay: Dielectrophoretic (DEP) characterization of C. difficile LTCD strain after vancomycin treatment; assay type: cell-based, Clostridium difficile; conditions: vancomycin 1 mg/mL, untreated 500 kHz
Experimental: as §1, §2, §3

[5] = test system: C. difficile VPI10463 (high-toxigenic, HTCD); assay: Dielectrophoretic (DEP) characterization of C. difficile HTCD strain after vancomycin treatment; assay type: cell-based, Clostridium difficile
Experimental: Bacteria strains preparation. II three C. difficile strains were purchased from ATCC. The bacteria were cultured in brain heart infusion (BHI) broth (BD BBL Brain Heart Infusion) at 37° C. overnight under anaerobic condition before further antibiotic treatment or dielectrophoretic experiments. 250 μL of the overnight cultured bacteria suspension and 750 μL of the BHI with vancomycin (Novaplus) or without vancomycin for the control groups were mixed in Eppendorf tubes and incubated at 37° C. for 4 hours or 24 hours. The vancomycin concentration for VPI10463 (high-toxigenic, HTCD) was 2 mg/mL and 1 mg/mL for ATCC630 (low-toxigenic, LTCD) and VPI11186 (non-toxigenic, NTCD). Prior to the dielectrophoresis experiments, the BHI broth was replaced with 8.8% sucrose water and re-adjusted with BHI broth to optimize the medium conductivity 105±5% mS/m for enabling DEP-based distinction of C. difficile strains from mixed samples. All three strains were confirmed to be viable within this altered BHI media over the timeframe of the DEP experiments, as per the colony forming unit (CFU) assay.
as §2, with “difficile. The experimental setup has been described in our prior work. Briefly, Standard PDMS (Poly-di-methyl-siloxane) micro-molding methods were used to micro-fabricate channels with sharp lateral constrictions (1000 μm to 15 μm).” for “difficile.”
as §3

[6] = test system: C. difficile VPI10463 (high-toxigenic, HTCD); assay: Toxicity enzyme-linked immunosorbent assay, total toxin (A/B) production; assay type: cell-based, Clostridium difficile
Experimental: Toxicity enzyme-linked immunosorbent assay. Total toxin (A/B) production was measured using the C. difficile TOX A/B II kit (Tech-Lab) according to the manufacturer's instructions. Culture supernatants were collected at 0, 4 and 24 hours by centrifugation at 3500 rcf for 5 min and stored at −20° C. The supernatants of the VPI110463 strain were diluted 1 to 20, while the supernatants of the VPI11186 strain were undiluted. Each specimen was run in duplicate. Total toxin levels were determined by measuring A450 under a 96 well plate spectrophotometry. The A450 number at each time point (4 hours and 24 hours) of each strain at each condition was normalized to its 0 hour time point.
(§4) In order to evaluate the sensitivity of DEP methods versus the current state of the art, we benchmark the DEP velocity data for HTCD and NTCD C. difficile strains after various levels of antibiotic treatment versus conventional diagnostic measures for the loss of C. difficile functionality, such as toxin production and growth rate values. To enable the comparison of DEP data across the range of C. difficile strains, we choose a frequency of 1 MHz, since all strains show some level of pDEP before and after antibiotic treatment. For measurements of alteration in toxin production level and growth rate of C. difficile strains after antibiotic treatment, it is necessary to culture the microbial cells with the antibiotic over a period of 4-24 hours, to enable sufficient sensitivity for the measurements. […] Furthermore, the results after antibiotic treatment for a particular period of time are compared against their respective values on untreated microbials for the same period of culture time (this control value for each treatment time is indicated as “Un-0”, “Un-4” or “Un-24” in FIGS. 15c-15e).

[7] = test system: C. difficile VPI11186 (non-toxigenic, NTCD); assay: Growth measurement (OD600), NTCD strain; assay type: cell-based, Clostridium difficile
Experimental: (§5) Growth measurement. 250 μL of the overnight cultured bacteria suspension and 750 μL of the BHI broth, with or without vancomycin were mixed in Eppendorf tubes. The optical density at a wavelength of 600 nm (OD600) of the mixed bacteria suspensions, measured by Spectrophotometry (Eppendorf Biophotometer) before incubation, was indexed as the “0 hour” time point. The OD600 number at later time points (4 and 24 hours) for respective strain at each condition was normalized to its 0 hour point.
as §4

[8] = test system: C. difficile VPI10463 (high-toxigenic, HTCD); assay: Growth measurement (OD600), HTCD strain; assay type: cell-based, Clostridium difficile
Experimental: as §5, §4

[9] = 4 hours of vancomycin treatment
[10] = 24 hours of vancomycin treatment

Row | SMILES | Excystation rate [1] | DEP response of treated versus untreated oocysts at 100 kHz and at 400 kHz [2] | DEP crossover frequency after vancomycin treatment ([3]; NTCD strain, vancomycin 1 mg/mL, untreated 900 kHz) [kHz] | DEP velocity after vancomycin treatment ([3]; NTCD, 1 MHz, 4 hours of vancomycin treatment, untreated 16 μm/s) [μm/s] | DEP crossover frequency after vancomycin treatment [4] [kHz] | DEP crossover frequency after vancomycin treatment ([5]; HTCD / hypervirulent TCD strain, vancomycin 2 mg/mL, untreated 300 kHz or 400 kHz) | DEP velocity after vancomycin treatment ([5]; HTCD, 1 MHz, 4 hours of vancomycin treatment, untreated 30.7 μm/s) [μm/s] | DEP behavior at 400 kHz of vancomycin treated cells ([5]; HTCD, 400 kHz, untreated HTCD shows pDEP) | Difference in toxin production level versus the control (Un-4) [6, 9] | Relative toxin production (normalized to 0 hour) [6, 9] [times] | Difference in toxin production level versus the control (Un-24) [6, 10] | Relative toxin production (normalized to 0 hour) [6, 10] | Difference in growth rate versus the untreated sample (Un-4) [7, 9] | Relative growth rate (OD600 normalized to 0 hour) [7, 9] [times] | Difference in growth rate versus the untreated sample (Un-24) [7, 10] | Relative growth rate (OD600 normalized to 0 hour) [7, 10] [times] | Growth rate reduction [8, 9] | Relative growth rate (OD600 normalized to 0 hour) [8, 9] [times] | Difference in growth rate versus the control (Un-24) [8, 10] | Relative growth rate (OD600 normalized to 0 hour) [8, 10] [times]
1 | O=[N+]([O-])[O-].[Ag+] [AgNO3, silver nitrate] | 71.4% and 70% | not significantly altered | – | – | – | – | – | – | – | – | – | – | – | – | – | – | – | – | – | –
2 | CN[C@H](CC(C)C)C(=O)N[C@H]1C(=O)N[C@@H](CC(N)=O)C(=O)N[C@H]2C(=O)N[C@H]3C(=O)N[C@H](C(=O)N[C@H](C(=O)O)c4cc(O)cc(O)c4-c4cc3ccc4O)[C@H](O)c3ccc(c(Cl)c3)Oc3cc2cc(c3O[C@@H]2O[C@H](CO)[C@@H](O)[C@H](O)[C@H]2O[C@H]2C[C@](C)(N)[C@H](O)[C@H](C)O2)Oc2ccc(cc2Cl)[C@H]1O [vancomycin] | – | – | 600 | ~7 | 300 | 600 kHz and 900 kHz | 7.6 | some residual level of nDEP and nDEP | 0.55 | 1.05 | 7.5 | small reduction | 0.74 | 1.1 | 3.3 | 1.05 | minimal growth rate reduction | 1.51 | 2.2 | 1.61
